The nature of data set [1]: Metabolic stability in liver microsomes.
Data set [2] can be described thus: Stability in the absence of hepatocytes. As to conditions: no hepatocytes, 10 μM.
Procedure: (§1) CYP3A4 substrate Midazolam (10 μM) was prepared and incubated in the same manner. […] In addition, in vitro half-life (t1/2, min) and intrinsic clearance (CLint, μl/min/10^6 cells) were calculated [10, 11].
The nature of data set [3]: Metabolic stability in hepatocyte. As to conditions: Sprague Dawley, rat, hepatocytes.
Procedure: as §1
For a further data set, the system named is rat hepatocytes. The experiment in a line: Metabolic stability in hepatocyte. As to conditions: rat hepatocytes, 10 μM.
Data set [4] can be described thus: Metabolic stability in hepatocyte. The conditions noted are these: Beagle, dog, hepatocytes.
Procedure: as §1
For the next data set, the system named is dog hepatocytes. The experiment in a line: Metabolic stability in hepatocyte. As to conditions: dog hepatocytes, 10 μM.
Data set [5] can be described thus: Metabolic stability in liver microsomes. This is another data set of the same source. (In general: Liver microsomes are vesicles of endoplasmic reticulum, rich in cytochrome P450 enzymes.)
For the next data set, the system named is human hepatocytes. In words: Metabolic stability in hepatocyte. As to conditions: human hepatocytes, 10 μM.
Data set [6] in a line: Metabolic stability in hepatocyte. The conditions noted are these: human, hepatocytes.
Procedure: as §1
A short description of data set [7]: Metabolic stability in liver microsomes. As to conditions: for % remaining: dog liver microsomes, 10 μM.
Data set [8] can be described thus: Metabolic stability in liver microsomes. As to conditions: for % remaining: monkey liver microsomes, 10 μM.
The subject of a further data set is CYP2B6 mRNA. In words: CYP induction, mRNA, primary cultured human hepatocytes. The conditions noted are these: Fold Induction (CYP2B6 mRNA expression).
Data set [9] has as its system CYP2B6. The description is as above. The conditions noted are these: Fold Induction (CYP2B6 mRNA expression), hepatocyte Lot 399, 1000 µM.
Source text: (§2) Rifampicin as a positive control and solvent (0.1% DMSO) vehicle control were also included. The acceptance criteria for CYP induction was ≥ 2-fold induction for significant CYP activity, while the acceptance criteria for CYP mRNA was ≥ 4-fold for significant CYP induction.
The test system of data set [10] is CYP2B6. In words: CYP induction, in situ catalytic activity, human hepatocytes.
Source text: as §2
In the next data set the target is T1, P-gp (Homo sapiens, UniProt P08183).
T1 construct: expressed in transfected cells; host or cells: MDCK-II cells
T1 sequence (P08183 whole entry): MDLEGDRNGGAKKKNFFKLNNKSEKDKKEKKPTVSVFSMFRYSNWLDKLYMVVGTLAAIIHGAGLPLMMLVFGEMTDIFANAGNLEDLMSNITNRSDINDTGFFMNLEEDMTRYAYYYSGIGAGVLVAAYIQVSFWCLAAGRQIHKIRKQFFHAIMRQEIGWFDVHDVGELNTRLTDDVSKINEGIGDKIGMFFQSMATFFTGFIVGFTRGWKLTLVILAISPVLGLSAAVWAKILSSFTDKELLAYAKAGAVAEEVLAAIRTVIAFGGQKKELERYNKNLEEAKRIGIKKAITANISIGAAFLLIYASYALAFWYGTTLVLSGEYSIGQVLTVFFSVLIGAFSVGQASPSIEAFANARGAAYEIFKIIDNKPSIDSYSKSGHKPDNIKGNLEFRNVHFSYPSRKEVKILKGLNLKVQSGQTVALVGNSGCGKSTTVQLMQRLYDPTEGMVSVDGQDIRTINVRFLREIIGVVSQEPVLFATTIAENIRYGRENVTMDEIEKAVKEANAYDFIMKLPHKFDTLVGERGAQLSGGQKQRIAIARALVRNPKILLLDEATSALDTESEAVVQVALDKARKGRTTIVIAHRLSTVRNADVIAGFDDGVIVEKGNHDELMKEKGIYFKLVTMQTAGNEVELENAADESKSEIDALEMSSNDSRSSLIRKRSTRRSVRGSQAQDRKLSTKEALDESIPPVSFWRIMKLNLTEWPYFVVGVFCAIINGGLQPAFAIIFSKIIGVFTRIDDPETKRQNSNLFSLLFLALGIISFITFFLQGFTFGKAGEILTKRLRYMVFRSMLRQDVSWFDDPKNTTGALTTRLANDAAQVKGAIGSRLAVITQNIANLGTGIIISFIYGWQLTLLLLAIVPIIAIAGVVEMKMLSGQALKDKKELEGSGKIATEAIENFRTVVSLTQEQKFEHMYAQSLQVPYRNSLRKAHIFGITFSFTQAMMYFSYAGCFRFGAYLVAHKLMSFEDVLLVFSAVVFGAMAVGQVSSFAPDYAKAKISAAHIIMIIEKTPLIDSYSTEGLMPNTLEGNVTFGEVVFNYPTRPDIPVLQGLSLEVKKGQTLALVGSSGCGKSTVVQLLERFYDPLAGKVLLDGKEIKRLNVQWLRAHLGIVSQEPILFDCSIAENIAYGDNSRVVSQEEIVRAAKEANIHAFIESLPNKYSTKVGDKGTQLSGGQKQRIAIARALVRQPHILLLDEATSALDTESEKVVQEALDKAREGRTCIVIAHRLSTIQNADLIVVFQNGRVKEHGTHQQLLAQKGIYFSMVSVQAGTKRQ
The experiment in a line: Transporter mediated assay (substrate/inhibitor), MDCK-II cells. It is filed as in vitro ADME. The conditions noted are these: human, probe quinidine 0.1 μM.

For another data set, the target named is T2, BCRP (Homo sapiens, UniProt Q9UNQ0).
T2 construct: expressed in transfected cells; host or cells: MDCK-II cells
T2 sequence (Q9UNQ0 1-655): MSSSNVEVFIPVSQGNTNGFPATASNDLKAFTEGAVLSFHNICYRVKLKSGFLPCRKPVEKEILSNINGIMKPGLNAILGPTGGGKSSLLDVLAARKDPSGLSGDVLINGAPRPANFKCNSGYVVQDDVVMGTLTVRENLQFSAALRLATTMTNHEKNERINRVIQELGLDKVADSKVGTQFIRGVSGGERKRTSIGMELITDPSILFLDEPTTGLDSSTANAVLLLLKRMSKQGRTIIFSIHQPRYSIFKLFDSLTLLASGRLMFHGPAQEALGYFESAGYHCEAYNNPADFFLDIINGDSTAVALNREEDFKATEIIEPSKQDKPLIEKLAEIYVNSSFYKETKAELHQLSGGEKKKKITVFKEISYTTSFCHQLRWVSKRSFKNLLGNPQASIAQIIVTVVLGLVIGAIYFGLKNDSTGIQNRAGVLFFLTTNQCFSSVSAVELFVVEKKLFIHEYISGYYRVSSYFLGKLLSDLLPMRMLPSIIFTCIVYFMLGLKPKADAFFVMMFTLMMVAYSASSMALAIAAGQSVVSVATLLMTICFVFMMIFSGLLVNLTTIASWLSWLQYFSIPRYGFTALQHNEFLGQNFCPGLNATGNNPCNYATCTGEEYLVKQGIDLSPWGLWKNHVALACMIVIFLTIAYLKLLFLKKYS
The data set is described as above. As to conditions: BCRP, substrate test, 2 µM. It is filed as in vitro ADME.

A further data set deals with HepG2 cells. The experiment in a line: Mitochondrial toxicity (MT) assay panel. It is filed as cell-based. As to conditions: HepG2, 100 µM. The method, then:
The assay results were presented as % cell viability. […] After each incubation, the cells were harvested and lysed to test the MT assay panel. The Zalcitabine (positive control) was also included in this assay (Fig 3 in S1 File). The levels of Mitochondrial Oxidative Phosphorylation (OXPHOS) complex 1 (NADH dehydrogenase; ab178011, lot #GR 3339973–1), complex 3 (CytC reductase; ab124537, lot #GR3276896-3), complex 4 (CytC Oxidase; ab179880, lot #GR3273194-1), and complex 5 (ATP synthase; ab124539, lot #GR3267780-4) in the cell lysates were determined using respective indirect ELISA as per manufacturer’s instructions. The total ATP content of the cell lysates was determined using an ATP assay kit (ab83355, lot #GR3314128-2, Abcam, Cambridge, MA). The Caspase 3 content of the cell lysates was determined using the Caspase-3 assay kit (ab39401, lot #GR3322733-1, Abcam, Cambridge, MA). In addition, the total glutathione content was determined using the total glutathione (GSSG/GSH) assay kit (STA-312, lot #09100263, Oxiselect™, San Diego, CA). Using an Oxiselect™ ROS/RNS assay kit (STA-347, lot #7081343, Cell Biolabs Inc. San Diego, CA), the ROS/RNS content of the cell lysates was determined by fluorescence assay.

The record followed here is article PMC11649115, “In vitro safety evaluation of dopamine D3R antagonist, R-VK4-116, as a potential medication for the treatment of opioid use disorder” (PLOS ONE, 2024).

Each structure is given as a SMILES string.

Procedure for BCRP: (§3) The MDCK-II cells were treated to express the transporter of interest.
(§4) For BCRP and P-gp, the apparent permeability Papp and Efflux Ratio (ER) were calculated [16]. Net basal (B) to apical (A) flux (B → A) of the substrate transport (pmol/min/cm^2) by BCRP or P-gp was calculated by subtracting A → B flux from B → A flux.
Source text for CYP2B6 mRNA: as §2
Procedure for P-gp: as §3, §4
Procedure for dog hepatocytes: as §1
Procedure for rat hepatocytes: as §1

For the molecule `Cc1ncc2n1-c1ccc(Cl)cc1C(c1ccccc1F)=NC2` [Midazolam, reference compound], the “% remaining” value in data set [1] (rat liver microsomes, 10 μM, 120 min) stood at 0.0%; in [5] (human liver microsomes, 10 μM, 120 min) it was 0.0%; in data set [7] (90 min), 0.0%; in data set [7] (120 min), 0.0%; in [8] (60 min) it was 0.0%; in data set [8] (90 min), 0.0%. In addition, the “% remaining” value in data set [8] (120 min) came to 0.0%. Further, the fraction remaining at 0 h, 10 μM in data set [1] (rat, microsomes, pH 7.4) amounted to 100%; in data set [5] (human, microsomes, pH 7.4), 100%; in [7] (dog, microsomes, pH 7.4), 100%; in [8] (monkey, microsomes, pH 7.4), 100%. In addition, the fraction remaining at 0.5 h, 10 μM in data set [1] (rat, microsomes, pH 7.4) worked out at 5.8%; in [5] (human, microsomes, pH 7.4), 9.7%; in [7] (dog, microsomes, pH 7.4) it was 0.3%; in [8] (monkey, microsomes, pH 7.4), 0.1%. Moreover, the share remaining at 1 h, 10 μM in data set [1] (rat, microsomes, pH 7.4) came to 0.4%; in data set [5] (human, microsomes, pH 7.4) it was 1%; in [7] (dog, microsomes, pH 7.4), 0.1%. Further, the fraction remaining at 1.5 h, 10 μM in [1] (rat, microsomes, pH 7.4) is 0.1%; in data set [5] (human, microsomes, pH 7.4) it was 0.2%. Further, the amount remaining at 2 h, 10 μM in data set [1] (rat, microsomes, pH 7.4) came to 102%; in [5] (human, microsomes, pH 7.4), 101%; in data set [7] (dog, microsomes, pH 7.4), 95.8%; in data set [8] (monkey, microsomes, pH 7.4) it was 91.8%. Besides, the “% remaining Vs T = 0 min” value is 100.0% in data set [2] (0 min); 97.7% in [2] (30 min); 97.6% in data set [2] (60 min); 98.6% in data set [2] (90 min); 98.5% in [2] (120 min); 100.0% in the data set with rat hepatocytes (0 min). Further, the “% remaining Vs T = 0 min” value amounted to 89.0% in the data set with rat hepatocytes (30 min); 77.8% in the data set with rat hepatocytes (60 min); 70.5% in the data set with rat hepatocytes (90 min); 65.7% in the data set on rat hepatocytes (120 min); 100.0% in the data set with dog hepatocytes (0 min); 66.6% with dog hepatocytes (30 min). Also, the “% remaining Vs T = 0 min” value came to 50.8% in the data set with dog hepatocytes (60 min); 31.2% in the data set with dog hepatocytes (90 min); 19.5% in the data set with dog hepatocytes (120 min); 100.0% in the data set with human hepatocytes (0 min); 91.7% in the data set with human hepatocytes (30 min); 85.3% in the data set on human hepatocytes (60 min). Also, the “% remaining Vs T = 0 min” value in the data set on human hepatocytes (90 min) is given as 80.7%; in the data set with human hepatocytes (120 min), 72.4%. Also, the figures for the half-life at 10 μM in data set [3], in data set [4] and in data set [6] were 3.22 h, 0.855 h and 4.45 h, respectively. Further, the results for the hepatocyte CLint at 10 μM in [3], in data set [4] and in [6] were 7.2 µL/min/1e6 cells, 27 µL/min/1e6 cells and 5.2 µL/min/1e6 cells, respectively.
Take `CCC1(c2ccccc2)C(=O)NC(=O)NC1=O` [Phenobarbital]: the fold induction at 48 h, 1000 µM in the data set on CYP2B6 mRNA (hepatocyte Lot 336, 1000 µM) is 11; in the data set with CYP2B6 mRNA (hepatocyte Lot 348B, 1000 µM) it was 12; in the data set with CYP2B6 [9], 11. Besides, the “Bupropion Hydroxylation” value with CYP2B6 [10] (hepatocyte Lot 336, 1000 µM) is 3.6 pmol/min/106 cells. In addition, the “Fold of Vehicle Control (CYP2B6 activity, bupropion hydroxylation)” value with CYP2B6 [10] (hepatocyte Lot 336, 1000 µM) is given as 4.0 fold; in the data set with CYP2B6 [10] (hepatocyte Lot 348B, 1000 µM) it was 8.6 fold; with CYP2B6 [10] (hepatocyte Lot 399, 1000 µM), 19 fold.
The molecule `COc1cc2c(cc1OC)CN(CCc1ccc(NC(=O)c3cccc4c(=O)c5cccc(OC)c5[nH]c34)cc1)CC2` [elacridar] gave an inhibition at 3 μM against P-gp of 98.4 ± 0.53%.
As to `COc1cc2nc(N3CCN(C(=O)c4ccco4)CC3)nc(N)c2cc1OC` [prazosin, reference compound], on BCRP, the Papp A→B at 2 µM was 8.06 ± 0.76 ×10⁻⁶ cm/s and the Papp B→A at 2 µM turned out to be 47.7 ± 2.77 ×10⁻⁶ cm/s.
Take `Nc1ccn([C@H]2CC[C@@H](CO)O2)c(=O)n1` [zalcitabine]: in the data set with HepG2 cells (2-week), the “OXPHOS 5 and total ATP levels, caspase 3 or ROS/RNS levels” value is “No significant decrease”; the “decrease in OXPHOS 1” value is listed as ~ 80%; the “decrease in OXPHOS 3” value was ~ 20%; the “decrease in OXPHOS 4” value is listed as ~ 70%. For the same molecule, in the data set with HepG2 cells (two weeks), the “increase in total glutathione content” value is ~ 35%.

In general, half-life refers to how long it takes for the measured level to halve. What is called hepatocyte CLint is the capacity of the preparation to metabolise the compound, expressed as a volume cleared per time. The term fold induction denotes the ratio of treated to control signal. As usually defined, the inhibition is the drop in the measured response relative to a control, in per cent. One may read the Papp A→B as the apparent permeability from the apical to the basolateral side of a cell layer. In general, Papp B→A refers to the apparent permeability from the basolateral to the apical side of a cell layer.
